In PubChem BioAssay (NCI) one finds TGI data, which are given here for eleven compounds.

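Exposure lasted 48 hours, with cells grown in 96-well plates and compounds tested at five concentrations. TGI denotes the concentration required for complete inhibition of growth.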

Among the test systems are HT29 colon; LOX IMVI melanoma; MALME-3M melanoma; UACC-257 melanoma; HCC-2998 colon; SNB-19 CNS; SK-MEL-5 melanoma; CAKI-1 renal; K-562 leukemia; SR leukemia.
Common to all, as to assay: NCI anticancer screen, dose series, 48 h

Turning to `COc1ccc(C(=O)NCCN(C)C)c2nc3ccccc3cc12`, the TGI is 5.6 µM in the test on HT29 colon; 1.74 µM with LOX IMVI melanoma; 2.3 µM in the test on MALME-3M melanoma; 4.02 µM in the test with UACC-257 melanoma; 8.34 µM with HCC-2998 colon; 9.49 µM in the test on SNB-19 CNS. The TGI was 2.54 µM in the test with SK-MEL-5 melanoma, 7.59 µM with CAKI-1 renal, 12.5 µM in the test on K-562 leukemia and 1.5 µM with SR leukemia.

`CC(C)(C)OC(=O)NC(CSSCC(NC(=O)OC(C)(C)C)C(=O)O)C(=O)O` (stereo not given): the TGI with HT29 colon, in the test with LOX IMVI melanoma, with MALME-3M melanoma, with UACC-257 melanoma, in the test with HCC-2998 colon and in the test with SNB-19 CNS was over 100 µM throughout. Moreover, the TGI in the test with SK-MEL-5 melanoma, with CAKI-1 renal, in the test with K-562 leukemia and with SR leukemia was over 100 µM in each case.

Take `CC1=C(C#N)c2nc3ccccc3n2C(=O)C1(C)CCO` (stereo not given): the TGI with HT29 colon, in the test with LOX IMVI melanoma, in the test on MALME-3M melanoma, in the test on UACC-257 melanoma, with HCC-2998 colon and in the test on SNB-19 CNS was over 100 µM throughout. The TGI in the test with SK-MEL-5 melanoma, with CAKI-1 renal, in the test on K-562 leukemia and in the test on SR leukemia was over 100 µM each time.

For the compound `COc1cc(C=O)ccc1O`, the TGI with HT29 colon, with LOX IMVI melanoma, in the test with MALME-3M melanoma, in the test on UACC-257 melanoma, with HCC-2998 colon and with SNB-19 CNS was over 100 µM throughout. For the same compound, the TGI in the test with SK-MEL-5 melanoma, with CAKI-1 renal, with K-562 leukemia and with SR leukemia was over 100 µM in each case.

Take `O=[N+]([O-])c1cc2oc(CSc3ccccc3)nc2cc1Cl`: the TGI with HT29 colon was over 100 µM; with LOX IMVI melanoma, over 100 µM; with MALME-3M melanoma, over 100 µM; in the test on UACC-257 melanoma, 82.2 µM; with HCC-2998 colon, 64.5 µM; in the test with SNB-19 CNS, over 100 µM. Also, the TGI in the test on SK-MEL-5 melanoma was 33.7 µM; in the test with CAKI-1 renal it was over 100 µM; with K-562 leukemia, over 100 µM; in the test with SR leukemia, over 100 µM.

For `CCN(C(=O)N[C@@H](C)C(=O)N[C@@H](Cc1ccccc1)C(=O)OC)c1ccccc1`, the TGI was over 100 µM in the test with HT29 colon; over 100 µM in the test with LOX IMVI melanoma; 83.8 µM with MALME-3M melanoma; over 100 µM in the test with UACC-257 melanoma; over 100 µM in the test on HCC-2998 colon; over 100 µM in the test on SNB-19 CNS. In addition, the TGI with SK-MEL-5 melanoma, with CAKI-1 renal, in the test with K-562 leukemia and in the test on SR leukemia was over 100 µM throughout.

As for `c1ccc(C(C(=Nc2ccc(Cc3ccc(N=C(C(c4ccccc4)c4ccccc4)N4CC4)cc3)cc2)N2CC2)c2ccccc2)cc1`, the TGI in the test on HT29 colon came to 15.9 µM; with LOX IMVI melanoma it was 18.9 µM; with MALME-3M melanoma, 38.8 µM; with UACC-257 melanoma, 25.6 µM; in the test with HCC-2998 colon it was 23.6 µM; in the test with SNB-19 CNS, 27.7 µM. Moreover, the TGI is 20.1 µM in the test with SK-MEL-5 melanoma, 24.1 µM in the test on CAKI-1 renal, 17.6 µM in the test on K-562 leukemia and 15.7 µM with SR leukemia.

On to `O=C1N(Cc2ccccc2)C2CSCC2N1Cc1ccccc1` (stereo not given), for which the TGI in the test with HT29 colon is 38.1 µM; with LOX IMVI melanoma, 93.1 µM; in the test on MALME-3M melanoma, 46.3 µM; with UACC-257 melanoma, 69.3 µM; in the test with HCC-2998 colon, 62.9 µM; with SNB-19 CNS, over 100 µM. The TGI was 30.3 µM in the test with SK-MEL-5 melanoma, over 100 µM in the test on CAKI-1 renal, over 100 µM with K-562 leukemia and 93.6 µM in the test on SR leukemia.

Take `O=c1c2c(no[n+]2[O-])c2ccccc2n1-c1ccccc1`: the TGI with HT29 colon is 15.5 µM; with LOX IMVI melanoma it was 7.28 µM; with MALME-3M melanoma it was 14.5 µM; in the test with UACC-257 melanoma, 22 µM; with HCC-2998 colon it was 20.6 µM; in the test on SNB-19 CNS, 25 µM. Besides, the TGI was 20 µM in the test on SK-MEL-5 melanoma, 6.39 µM with CAKI-1 renal, over 46.4 µM in the test on K-562 leukemia and over 27.3 µM in the test on SR leukemia.

For the compound `Cn1ncc2c(NCc3ccccc3)ncnc21`, the TGI with HT29 colon, in the test on LOX IMVI melanoma, with MALME-3M melanoma, in the test with UACC-257 melanoma, with HCC-2998 colon and in the test on SNB-19 CNS was over 100 µM in each case. Also, the TGI in the test with SK-MEL-5 melanoma, with CAKI-1 renal, in the test on K-562 leukemia and with SR leukemia was over 100 µM throughout.

In the case of `O=c1onc2n1-c1cc(Cl)ccc1C(=S)N1CSCC21` (stereo not given), the TGI with HT29 colon, with LOX IMVI melanoma, in the test on MALME-3M melanoma, in the test on UACC-257 melanoma, in the test with HCC-2998 colon and with SNB-19 CNS was over 100 µM in each case. The TGI was over 100 µM with SK-MEL-5 melanoma, over 100 µM with CAKI-1 renal, 63.8 µM in the test on K-562 leukemia and over 100 µM in the test on SR leukemia.
